Assay results reported in ChEMBL document CHEMBL3045816, “Synthesis and antimicrobial screening of 5-(benzylidene)-3-phenylthiazolidin-4-one derivatives incorporating thiazole ring” (Med Chem Res, 2013).
≈ marks a conversion by molar mass, not a printed value.

Key:
Staphylococcus aureus = assay: Antimicrobial activity against Staphylococcus aureus MTCC 96 assessed as growth inhibition after 24 hr by turbidimetric method; type: functional; conditions: MTCC 96, 24 h
Streptococcus pyogenes = assay: Antimicrobial activity against Streptococcus pyogenes MTCC 442 assessed as growth inhibition after 24 hr by turbidimetric method; type: functional; conditions: MTCC 442, 24 h
Aspergillus clavatus = assay: Antimicrobial activity against Aspergillus clavatus MTCC 1323 assessed as growth inhibition after 48 hr; type: functional; conditions: MTCC 1323, 48 h
Aspergillus niger = assay: Antimicrobial activity against Aspergillus niger MTCC 282 assessed as growth inhibition after 48 hr; type: functional; conditions: MTCC 282, 48 h
Candida albicans = assay: Antimicrobial activity against Candida albicans MTCC 227 assessed as growth inhibition after 48 hr; type: functional; conditions: MTCC 227, 48 h
Escherichia coli = assay: Antimicrobial activity against Escherichia coli MTCC 443 assessed as growth inhibition after 24 hr by turbidimetric method; type: functional; conditions: MTCC 443, 24 h
Pseudomonas aeruginosa = assay: Antimicrobial activity against Pseudomonas aeruginosa MTCC 1688 assessed as growth inhibition after 24 hr by turbidimetric method; type: functional; conditions: MTCC 1688, 24 h
A549 = assay: Cytotoxicity against Homo sapiens (human) A549 cells by SRB assay; type: cell-based
HepG2 = assay: Cytotoxicity against Homo sapiens (human) HepG2 cells by SRB assay; type: cell-based
HL-60 = assay: Cytotoxicity against Homo sapiens (human) HL60 cells by SRB assay; type: cell-based

| SMILES | MIC (Staphylococcus aureus) | MIC (Streptococcus pyogenes) | MIC (Aspergillus clavatus) | MIC (Aspergillus niger) | MIC (Candida albicans) | MIC (Escherichia coli) | MIC (Pseudomonas aeruginosa) | Activity (A549) | Activity (HepG2) | Activity (HL-60) |
| --- | --- | --- | --- | --- | --- | --- | --- | --- | --- | --- |
| COc1ccc(C(=O)Nc2nc(C)c(C(=O)N/N=C3\S/C(=C\c4ccccc4)C(=O)N3c3ccccc3)s2)cc1 | 500 µg/mL (≈ 878 µM) | 250 µg/mL (≈ 439 µM) | 500 µg/mL (≈ 878 µM) | 500 µg/mL (≈ 878 µM) | 500 µg/mL (≈ 878 µM) | 250 µg/mL (≈ 439 µM) | 500 µg/mL (≈ 878 µM) |  |  |  |
| COc1ccc(C(=O)Nc2nc(C)c(C(=O)NNC(=S)Nc3ccccc3)s2)cc1 | 500 µg/mL (≈ 1130 µM) | 500 µg/mL (≈ 1130 µM) | > 1000 µg/mL | 1000 µg/mL (≈ 2260 µM) | 1000 µg/mL (≈ 2260 µM) | 500 µg/mL (≈ 1130 µM) | 500 µg/mL (≈ 1130 µM) |  |  |  |
| O=C(O)c1cn(C2CC2)c2cc(N3CCNCC3)c(F)cc2c1=O [CIPROFLOXACIN] | 50 µg/mL (≈ 151 µM) | 50 µg/mL (≈ 151 µM) |  |  |  | 25 µg/mL (≈ 75.4 µM) |  |  |  |  |
| COc1ccc(C(=O)Nc2nc(C)c(C(=O)N/N=C3\S/C(=C\c4cccc(OC)c4)C(=O)N3c3ccccc3)s2)cc1 | 250 µg/mL (≈ 417 µM) | 250 µg/mL (≈ 417 µM) | 250 µg/mL (≈ 417 µM) | 250 µg/mL (≈ 417 µM) | 500 µg/mL (≈ 834 µM) | 50 µg/mL (≈ 83.4 µM) | 250 µg/mL (≈ 417 µM) |  |  |  |
| COc1ccc(C(=O)Nc2nc(C)c(C(=O)N/N=C3\S/C(=C\c4ccccc4O)C(=O)N3c3ccccc3)s2)cc1 | 250 µg/mL (≈ 427 µM) | 100 µg/mL (≈ 171 µM) | 250 µg/mL (≈ 427 µM) | 250 µg/mL (≈ 427 µM) | 500 µg/mL (≈ 854 µM) | 100 µg/mL (≈ 171 µM) | 250 µg/mL (≈ 427 µM) |  |  |  |
| COc1ccc(C(=O)Nc2nc(C)c(C(=O)N/N=C3\S/C(=C\c4ccc(O)cc4)C(=O)N3c3ccccc3)s2)cc1 | 50 µg/mL (≈ 85.4 µM) | 250 µg/mL (≈ 427 µM) | 250 µg/mL (≈ 427 µM) | 100 µg/mL (≈ 171 µM) | 250 µg/mL (≈ 427 µM) | 50 µg/mL (≈ 85.4 µM) | 250 µg/mL (≈ 427 µM) | Non-toxic | Non-toxic | Non-toxic |
| COC1=CC(=O)C[C@@H](C)[C@]12Oc1c(Cl)c(OC)cc(OC)c1C2=O [GRISEOFULVIN] |  |  | 100 µg/mL (≈ 283 µM) | 100 µg/mL (≈ 283 µM) | 500 µg/mL (≈ 1420 µM) |  |  |  |  |  |
| COc1ccc(C(=O)Nc2nc(C)c(C(=O)N/N=C3\S/C(=C\c4ccccc4C)C(=O)N3c3ccccc3)s2)cc1 | 250 µg/mL (≈ 428 µM) | 100 µg/mL (≈ 171 µM) | 100 µg/mL (≈ 171 µM) | 100 µg/mL (≈ 171 µM) | 100 µg/mL (≈ 171 µM) | 25 µg/mL (≈ 42.8 µM) | 25 µg/mL (≈ 42.8 µM) | Non-toxic | Non-toxic | Non-toxic |
| COc1ccc(C(=O)Nc2nc(C)c(C(=O)N/N=C3\S/C(=C\c4ccc(Cl)cc4)C(=O)N3c3ccccc3)s2)cc1 | 250 µg/mL (≈ 414 µM) | 500 µg/mL (≈ 828 µM) | 500 µg/mL (≈ 828 µM) | 500 µg/mL (≈ 828 µM) | 500 µg/mL (≈ 828 µM) | 500 µg/mL (≈ 828 µM) | 500 µg/mL (≈ 828 µM) |  |  |  |
| COc1ccc(C(=O)Nc2nc(C)c(C(=O)N/N=C3\S/C(=C\c4ccccc4Cl)C(=O)N3c3ccccc3)s2)cc1 | 250 µg/mL (≈ 414 µM) | 500 µg/mL (≈ 828 µM) | 250 µg/mL (≈ 414 µM) | 250 µg/mL (≈ 414 µM) | 500 µg/mL (≈ 828 µM) | 250 µg/mL (≈ 414 µM) | 250 µg/mL (≈ 414 µM) |  |  |  |
| COc1ccc(C(=O)Nc2nc(C)c(C(=O)N/N=C3\S/C(=C\c4ccc([N+](=O)[O-])cc4)C(=O)N3c3ccccc3)s2)cc1 | 500 µg/mL (≈ 813 µM) | 500 µg/mL (≈ 813 µM) | 500 µg/mL (≈ 813 µM) | 500 µg/mL (≈ 813 µM) | 500 µg/mL (≈ 813 µM) | 250 µg/mL (≈ 407 µM) | 500 µg/mL (≈ 813 µM) |  |  |  |
| COc1ccc(C(=O)Nc2nc(C)c(C(=O)N/N=C3\S/C(=C\c4ccccc4OC)C(=O)N3c3ccccc3)s2)cc1 | 100 µg/mL (≈ 167 µM) | 100 µg/mL (≈ 167 µM) | 100 µg/mL (≈ 167 µM) | 100 µg/mL (≈ 167 µM) | 100 µg/mL (≈ 167 µM) | 250 µg/mL (≈ 417 µM) | 100 µg/mL (≈ 167 µM) | Non-toxic | Non-toxic | Non-toxic |
| COc1ccc(C(=O)Nc2nc(C)c(C(=O)N/N=C3\S/C(=C\c4cccc(O)c4)C(=O)N3c3ccccc3)s2)cc1 | 100 µg/mL (≈ 171 µM) | 250 µg/mL (≈ 427 µM) | 100 µg/mL (≈ 171 µM) | 250 µg/mL (≈ 427 µM) | 500 µg/mL (≈ 854 µM) | 100 µg/mL (≈ 171 µM) | 100 µg/mL (≈ 171 µM) |  |  |  |

Continued by falling MIC (Aspergillus clavatus), values first:

| MIC (Staphylococcus aureus) | MIC (Streptococcus pyogenes) | MIC (Aspergillus clavatus) | MIC (Aspergillus niger) | MIC (Candida albicans) | MIC (Escherichia coli) | MIC (Pseudomonas aeruginosa) | SMILES | Activity (A549) | Activity (HepG2) | Activity (HL-60) |
| --- | --- | --- | --- | --- | --- | --- | --- | --- | --- | --- |
| > 1000 µg/mL | 1000 µg/mL (≈ 3260 µM) | 1000 µg/mL (≈ 3260 µM) | > 1000 µg/mL | 1000 µg/mL (≈ 3260 µM) | > 1000 µg/mL | 1000 µg/mL (≈ 3260 µM) | COc1ccc(C(=O)Nc2nc(C)c(C(=O)NN)s2)cc1 |  |  |  |
| 500 µg/mL (≈ 851 µM) | 250 µg/mL (≈ 425 µM) | 500 µg/mL (≈ 851 µM) | 250 µg/mL (≈ 425 µM) | 500 µg/mL (≈ 851 µM) | 500 µg/mL (≈ 851 µM) | 250 µg/mL (≈ 425 µM) | COc1ccc(C(=O)Nc2nc(C)c(C(=O)N/N=C3\S/C(=C\c4ccc(F)cc4)C(=O)N3c3ccccc3)s2)cc1 |  |  |  |
| 500 µg/mL (≈ 813 µM) | 250 µg/mL (≈ 407 µM) | 250 µg/mL (≈ 407 µM) | 250 µg/mL (≈ 407 µM) | 1000 µg/mL (≈ 1630 µM) | 500 µg/mL (≈ 813 µM) | 250 µg/mL (≈ 407 µM) | COc1ccc(C(=O)Nc2nc(C)c(C(=O)N/N=C3\S/C(=C\c4ccccc4[N+](=O)[O-])C(=O)N3c3ccccc3)s2)cc1 |  |  |  |
| 250 µg/mL (≈ 428 µM) | 100 µg/mL (≈ 171 µM) | 250 µg/mL (≈ 428 µM) | 250 µg/mL (≈ 428 µM) | 250 µg/mL (≈ 428 µM) | 100 µg/mL (≈ 171 µM) | 250 µg/mL (≈ 428 µM) | COc1ccc(C(=O)Nc2nc(C)c(C(=O)N/N=C3\S/C(=C\c4cccc(C)c4)C(=O)N3c3ccccc3)s2)cc1 |  |  |  |
| 500 µg/mL (≈ 1040 µM) | 500 µg/mL (≈ 1040 µM) | 250 µg/mL (≈ 519 µM) | 1000 µg/mL (≈ 2080 µM) | 1000 µg/mL (≈ 2080 µM) | 250 µg/mL (≈ 519 µM) | 500 µg/mL (≈ 1040 µM) | COc1ccc(C(=O)Nc2nc(C)c(C(=O)N/N=C3\SCC(=O)N3c3ccccc3)s2)cc1 |  |  |  |
| 100 µg/mL (≈ 167 µM) | 50 µg/mL (≈ 83.4 µM) | 50 µg/mL (≈ 83.4 µM) | 100 µg/mL (≈ 167 µM) | 50 µg/mL (≈ 83.4 µM) | 25 µg/mL (≈ 41.7 µM) | 50 µg/mL (≈ 83.4 µM) | COc1ccc(/C=C2\S/C(=N\NC(=O)c3sc(NC(=O)c4ccc(OC)cc4)nc3C)N(c3ccccc3)C2=O)cc1 | Non-toxic | Non-toxic | Non-toxic |
| 50 µg/mL (≈ 85.7 µM) | 50 µg/mL (≈ 85.7 µM) | 25 µg/mL (≈ 42.8 µM) | 25 µg/mL (≈ 42.8 µM) | 100 µg/mL (≈ 171 µM) | 12.5 µg/mL (≈ 21.4 µM) | 50 µg/mL (≈ 85.7 µM) | COc1ccc(C(=O)Nc2nc(C)c(C(=O)N/N=C3\S/C(=C\c4ccc(C)cc4)C(=O)N3c3ccccc3)s2)cc1 | Non-toxic | Non-toxic | Non-toxic |
